Assay results taken from PubChem BioAssay (NCI).
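Assay format: 96-well plates, 48-hour exposure. GI50 = concentration required for 50% inhibition of growth. TGI denotes the concentration required for complete inhibition of growth.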

Columns and labels:
Assay in all cases: NCI anticancer screen, dose series, 48 h
MDA-MB-435 = test system: MDA-MB-435
A498 renal = test system: A498 renal
M14 melanoma = test system: M14 melanoma
HCT-116 colon = test system: HCT-116 colon
LOX IMVI melanoma = test system: LOX IMVI melanoma
OVCAR-8 ovarian = test system: OVCAR-8 ovarian
NCI/ADR-RES ovarian = test system: NCI/ADR-RES ovarian
HCC-2998 colon = test system: HCC-2998 colon
SF-539 CNS = test system: SF-539 CNS
UO-31 renal = test system: UO-31 renal
HOP-92 NSCLC = test system: HOP-92 NSCLC
NCI-H460 lung = test system: NCI-H460 lung
SR leukemia = test system: SR leukemia
SNB-19 CNS = test system: SNB-19 CNS
U251 CNS = test system: U251 CNS
NCI-H23 lung = test system: NCI-H23 lung
KM12 colon = test system: KM12 colon
PC-3 prostate = test system: PC-3 prostate
A549 NSCLC = test system: A549 NSCLC
SNB-75 CNS = test system: SNB-75 CNS
HL-60(TB) leukemia = test system: HL-60(TB) leukemia
UACC-257 melanoma = test system: UACC-257 melanoma
HOP-62 NSCLC = test system: HOP-62 NSCLC
MALME-3M melanoma = test system: MALME-3M melanoma
OVCAR-5 ovarian = test system: OVCAR-5 ovarian
MOLT-4 leukemia = test system: MOLT-4 leukemia
OVCAR-3 ovarian = test system: OVCAR-3 ovarian
SF-268 CNS = test system: SF-268 CNS
CAKI-1 renal = test system: CAKI-1 renal

CCN(CCCNC(=O)Cc1cc(=O)oc2cc(N(C)C)ccc12)CCNc1ccnc2cc(Cl)ccc12
GI50 (MDA-MB-435): 2.29 µM | TGI (MDA-MB-435): 5.78 µM | GI50 (A498 renal): 12.4 µM | TGI (A498 renal): > 100 µM | GI50 (M14 melanoma): 2.08 µM | TGI (M14 melanoma): 3.85 µM | GI50 (HCT-116 colon): 4.86 µM | TGI (HCT-116 colon): 17 µM | GI50 (LOX IMVI melanoma): 2 µM | TGI (LOX IMVI melanoma): 5.01 µM | GI50 (OVCAR-8 ovarian): 8.29 µM | TGI (OVCAR-8 ovarian): 61.7 µM | GI50 (NCI/ADR-RES ovarian): 30.7 µM | TGI (NCI/ADR-RES ovarian): > 100 µM | GI50 (HCC-2998 colon): 7.87 µM | TGI (HCC-2998 colon): 21.3 µM | GI50 (SF-539 CNS): 1.69 µM | TGI (SF-539 CNS): 3.42 µM | GI50 (UO-31 renal): 15.5 µM | TGI (UO-31 renal): 40.6 µM | GI50 (HOP-92 NSCLC): 1.48 µM | TGI (HOP-92 NSCLC): 13.8 µM | GI50 (NCI-H460 lung): 9.54 µM | TGI (NCI-H460 lung): 22.3 µM | GI50 (SR leukemia): 2.6 µM | TGI (SR leukemia): 6.64 µM | GI50 (SNB-19 CNS): 18.9 µM | TGI (SNB-19 CNS): 52.7 µM | GI50 (U251 CNS): 3.4 µM | TGI (U251 CNS): 12.6 µM | GI50 (NCI-H23 lung): 14 µM | TGI (NCI-H23 lung): 34.3 µM | GI50 (KM12 colon): 12.5 µM | TGI (KM12 colon): 28.1 µM | GI50 (PC-3 prostate): 13.8 µM | TGI (PC-3 prostate): 37.9 µM | GI50 (A549 NSCLC): 11.3 µM | TGI (A549 NSCLC): 28.6 µM | GI50 (SNB-75 CNS): 6.44 µM | TGI (SNB-75 CNS): 25.6 µM | GI50 (HL-60(TB) leukemia): 16.3 µM | TGI (HL-60(TB) leukemia): 44.2 µM | GI50 (UACC-257 melanoma): 1.79 µM | TGI (UACC-257 melanoma): 3.65 µM | GI50 (HOP-62 NSCLC): 13.2 µM | TGI (HOP-62 NSCLC): 32.5 µM | GI50 (MALME-3M melanoma): 1.83 µM | TGI (MALME-3M melanoma): 3.86 µM | GI50 (OVCAR-5 ovarian): 16.5 µM | TGI (OVCAR-5 ovarian): 38.2 µM | GI50 (MOLT-4 leukemia): 8.13 µM | TGI (MOLT-4 leukemia): 28 µM | GI50 (OVCAR-3 ovarian): 14 µM | TGI (OVCAR-3 ovarian): 33.2 µM | GI50 (SF-268 CNS): 11.3 µM | TGI (SF-268 CNS): 30.5 µM | GI50 (CAKI-1 renal): 15.6 µM
